Assay results published in PubChem BioAssay (NCI).
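All cell lines were grown in 96-well plates and treated with compound for 48 hours. Abbreviation: GI50, concentration required for 50% inhibition of growth. TGI: total growth inhibition.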

Experiments:
Assay in all cases: NCI-60 cell line screen, 48 h
[1] = test system: NCI/ADR-RES ovarian
[2] = test system: MDA-MB-231 breast
[3] = test system: U251 CNS
[4] = test system: KM12 colon
[5] = test system: OVCAR-3 ovarian
[6] = test system: PC-3 prostate
[7] = test system: OVCAR-4 ovarian
[8] = test system: COLO 205 colon
[9] = test system: SW-620 colon
[10] = test system: NCI-H23 lung
[11] = test system: NCI-H460 lung
[12] = test system: SK-OV-3 ovarian
[13] = test system: HCT-15 colon
[14] = test system: MOLT-4 leukemia
[15] = test system: DU-145 prostate
[16] = test system: NCI-H522 lung
[17] = test system: LOX IMVI melanoma
[18] = test system: UO-31 renal
[19] = test system: MCF7 breast
[20] = test system: SK-MEL-28 melanoma
[21] = test system: K-562 leukemia
[22] = test system: HS 578T breast
[23] = test system: HCC-2998 colon
[24] = test system: HCT-116 colon
[25] = test system: HT29 colon
[26] = test system: SK-MEL-2 melanoma
[27] = test system: ACHN renal
[28] = test system: CAKI-1 renal
[29] = test system: M14 melanoma
[30] = test system: HOP-92 NSCLC
[31] = test system: MDA-MB-435
[32] = test system: OVCAR-5 ovarian
[33] = test system: TK-10 renal
[34] = test system: CCRF-CEM leukemia
[35] = test system: SNB-75 CNS
[36] = test system: A498 renal
[37] = test system: T-47D breast
[38] = test system: SF-268 CNS
[39] = test system: SNB-19 CNS
[40] = test system: NCI-H226 lung
[41] = test system: SN12C renal
[42] = test system: BT-549 breast
[43] = test system: UACC-257 melanoma
[44] = test system: A549 NSCLC
[45] = test system: OVCAR-8 ovarian
[46] = test system: 786-0 renal
[47] = test system: RXF 393 renal
[48] = test system: SK-MEL-5 melanoma
[49] = test system: SF-539 CNS
[50] = test system: HOP-62 NSCLC
[51] = test system: UACC-62 melanoma
[52] = test system: SF-295 CNS
[53] = test system: MALME-3M melanoma
[54] = test system: RPMI-8226 leukemia
[55] = test system: IGROV1 ovarian
[56] = test system: EKVX NSCLC
[57] = test system: HL-60(TB) leukemia

Q: Which results are given for `COc1cc(/C=C/c2cc(/C=C/c3ccc(O)c(OC)c3)n(C(N)=O)n2)ccc1O`?
A: GI50 [1]: 0.435 µM; TGI [1]: 4.44 µM; GI50 [2]: 0.655 µM; TGI [2]: 12.8 µM; GI50 [3]: 0.526 µM; TGI [3]: 10.5 µM; GI50 [4]: 0.351 µM; TGI [4]: 1.86 µM; GI50 [5]: 0.427 µM; TGI [5]: 2.19 µM; GI50 [6]: 0.439 µM; TGI [6]: 2.31 µM; GI50 [7]: 0.57 µM; TGI [7]: 5.03 µM; GI50 [8]: 2.36 µM; TGI [8]: 6.03 µM; GI50 [9]: 0.398 µM; TGI [9]: 1.82 µM; GI50 [10]: 0.647 µM; TGI [10]: 3.53 µM; GI50 [11]: 0.318 µM; TGI [11]: 1.3 µM; GI50 [12]: 0.392 µM; TGI [12]: 1.93 µM; GI50 [13]: 0.312 µM; TGI [13]: 2.01 µM; GI50 [14]: 0.365 µM; TGI [14]: > 100 µM; GI50 [15]: 0.482 µM; TGI [15]: 1.63 µM; GI50 [16]: 0.252 µM; TGI [16]: 0.964 µM; GI50 [17]: 0.493 µM; TGI [17]: 2.75 µM; GI50 [18]: 0.37 µM; TGI [18]: 1.69 µM; GI50 [19]: 0.314 µM; TGI [19]: 1.45 µM; GI50 [20]: 0.609 µM; TGI [20]: 3.26 µM; GI50 [21]: 0.35 µM; TGI [21]: > 100 µM; GI50 [22]: 0.259 µM; TGI [22]: 2.52 µM; GI50 [23]: 1.56 µM; TGI [23]: 11.2 µM; GI50 [24]: 0.314 µM; TGI [24]: 1.11 µM; GI50 [25]: 2.18 µM; TGI [25]: 5.28 µM; GI50 [26]: 0.4 µM; TGI [26]: 1.13 µM; GI50 [27]: 0.342 µM; TGI [27]: 10.2 µM; GI50 [28]: 0.368 µM; TGI [28]: 10 µM; GI50 [29]: 0.283 µM; TGI [29]: 1.03 µM; GI50 [30]: 0.861 µM; TGI [30]: 4.4 µM; GI50 [31]: 0.102 µM; TGI [31]: 0.346 µM; GI50 [32]: 1.76 µM; TGI [32]: > 100 µM; GI50 [33]: 1.3 µM; TGI [33]: 4.73 µM; GI50 [34]: 0.295 µM; TGI [34]: > 100 µM; GI50 [35]: 0.311 µM; TGI [35]: 1.26 µM; GI50 [36]: 1.12 µM; TGI [36]: 3.48 µM; GI50 [37]: 0.507 µM; TGI [37]: 3.68 µM; GI50 [38]: 0.439 µM; TGI [38]: 4.83 µM; GI50 [39]: 0.691 µM; GI50 [40]: 1.38 µM; TGI [40]: 4.4 µM; GI50 [41]: 0.585 µM; TGI [41]: 5.94 µM; GI50 [42]: 0.395 µM; TGI [42]: 1.58 µM; GI50 [43]: 1.53 µM; TGI [43]: 9.03 µM; GI50 [44]: 0.491 µM; TGI [44]: 11.3 µM; GI50 [45]: 0.543 µM; TGI [45]: 22.8 µM; GI50 [46]: 0.372 µM; TGI [46]: 1.37 µM

Q: How did the TGI [1] turn out when `NC(N)=Nc1ccc(CC(N)C(=O)NCC(=O)C(CC(=O)O)c2ncc(NC(=O)C(F)(F)F)o2)cc1` (centres undefined) was run?
A: Its TGI is over 25 µM.

Q: And the TGI [2]?
A: Its TGI is over 25 µM.

Q: And the TGI [47]?
A: Its TGI is over 25 µM.

Q: And the TGI [3]?
A: The TGI was over 25 µM.

Q: And the TGI [4]?
A: The TGI was over 25 µM.

Q: What about the TGI [5] of the same compound?
A: The TGI was over 25 µM.

Q: What about the TGI [48] of the same compound?
A: The TGI was over 25 µM.

Q: And the TGI [6]?
A: The TGI was over 25 µM.

Q: What about the TGI [7] of the same compound?
A: The TGI was over 25 µM.

Q: And the TGI [49]?
A: Its TGI is over 25 µM.

Q: What about the TGI [8] of the same compound?
A: Its TGI is over 25 µM.

Q: And the TGI [9]?
A: Its TGI is over 25 µM.

Q: And the TGI [10]?
A: The TGI was over 25 µM.

Q: What about the TGI [11] of the same compound?
A: Its TGI is over 25 µM.

Q: And the TGI [12]?
A: Its TGI is over 25 µM.

Q: What about the TGI [13] of the same compound?
A: Its TGI is over 25 µM.

Q: And the TGI [15]?
A: Its TGI is over 25 µM.

Q: And the TGI [16]?
A: Its TGI is over 25 µM.

Q: And the TGI [17]?
A: Its TGI is over 25 µM.

Q: What about the TGI [18] of the same compound?
A: The TGI was over 25 µM.

Q: And the TGI [19]?
A: The TGI was over 25 µM.

Q: And the TGI [20]?
A: The TGI was over 25 µM.

Q: What about the TGI [22] of the same compound?
A: The TGI was over 25 µM.

Q: And the TGI [23]?
A: The TGI was over 25 µM.

Q: And the TGI [50]?
A: The TGI was over 25 µM.

Q: What about the TGI [24] of the same compound?
A: The TGI was over 25 µM.

Q: And the TGI [51]?
A: The TGI was over 25 µM.

Q: What about the TGI [25] of the same compound?
A: The TGI was over 25 µM.

Q: And the TGI [52]?
A: Its TGI is over 25 µM.

Q: And the TGI [53]?
A: Its TGI is over 25 µM.

Q: And the TGI [26]?
A: The TGI was over 25 µM.

Q: And the TGI [54]?
A: Its TGI is over 25 µM.

Q: And the TGI [27]?
A: Its TGI is over 25 µM.

Q: And the TGI [28]?
A: Its TGI is over 25 µM.

Q: What about the TGI [55] of the same compound?
A: Its TGI is over 25 µM.

Q: And the TGI [29]?
A: Its TGI is over 25 µM.

Q: And the TGI [31]?
A: Its TGI is over 25 µM.

Q: And the TGI [32]?
A: The TGI was over 25 µM.

Q: And the TGI [33]?
A: The TGI was over 25 µM.

Q: What about the TGI [34] of the same compound?
A: Its TGI is over 25 µM.

Q: And the TGI [35]?
A: The TGI was over 25 µM.

Q: And the TGI [36]?
A: The TGI was over 25 µM.

Q: And the TGI [37]?
A: Its TGI is over 25 µM.

Q: What about the TGI [38] of the same compound?
A: Its TGI is over 25 µM.

Q: And the TGI [40]?
A: Its TGI is over 25 µM.

Q: What about the TGI [41] of the same compound?
A: Its TGI is over 25 µM.

Q: What about the TGI [42] of the same compound?
A: Its TGI is over 25 µM.

Q: And the TGI [56]?
A: Its TGI is over 25 µM.

Q: And the TGI [43]?
A: The TGI was over 25 µM.

Q: What about the TGI [44] of the same compound?
A: The TGI was over 25 µM.

Q: And the TGI [45]?
A: Its TGI is over 25 µM.

Q: What about the TGI [57] of the same compound?
A: Its TGI is over 25 µM.

Q: What about the TGI [46] of the same compound?
A: The TGI was over 25 µM.
